Test results from patent US20250034216A1, “STEREOSELECTIVE COVALENT LIGANDS FOR ONCOGENIC AND IMMUNOLOGICAL PROTEINS” (The Scripps Research Institute, priority 2021, published 2025).

Target: T1, DENND2B_C804 (Homo sapiens, UniProt P78524)
T1 construct: endogenous in cells; host or cells: 22Rv1
T1 sequence (P78524 1-1137): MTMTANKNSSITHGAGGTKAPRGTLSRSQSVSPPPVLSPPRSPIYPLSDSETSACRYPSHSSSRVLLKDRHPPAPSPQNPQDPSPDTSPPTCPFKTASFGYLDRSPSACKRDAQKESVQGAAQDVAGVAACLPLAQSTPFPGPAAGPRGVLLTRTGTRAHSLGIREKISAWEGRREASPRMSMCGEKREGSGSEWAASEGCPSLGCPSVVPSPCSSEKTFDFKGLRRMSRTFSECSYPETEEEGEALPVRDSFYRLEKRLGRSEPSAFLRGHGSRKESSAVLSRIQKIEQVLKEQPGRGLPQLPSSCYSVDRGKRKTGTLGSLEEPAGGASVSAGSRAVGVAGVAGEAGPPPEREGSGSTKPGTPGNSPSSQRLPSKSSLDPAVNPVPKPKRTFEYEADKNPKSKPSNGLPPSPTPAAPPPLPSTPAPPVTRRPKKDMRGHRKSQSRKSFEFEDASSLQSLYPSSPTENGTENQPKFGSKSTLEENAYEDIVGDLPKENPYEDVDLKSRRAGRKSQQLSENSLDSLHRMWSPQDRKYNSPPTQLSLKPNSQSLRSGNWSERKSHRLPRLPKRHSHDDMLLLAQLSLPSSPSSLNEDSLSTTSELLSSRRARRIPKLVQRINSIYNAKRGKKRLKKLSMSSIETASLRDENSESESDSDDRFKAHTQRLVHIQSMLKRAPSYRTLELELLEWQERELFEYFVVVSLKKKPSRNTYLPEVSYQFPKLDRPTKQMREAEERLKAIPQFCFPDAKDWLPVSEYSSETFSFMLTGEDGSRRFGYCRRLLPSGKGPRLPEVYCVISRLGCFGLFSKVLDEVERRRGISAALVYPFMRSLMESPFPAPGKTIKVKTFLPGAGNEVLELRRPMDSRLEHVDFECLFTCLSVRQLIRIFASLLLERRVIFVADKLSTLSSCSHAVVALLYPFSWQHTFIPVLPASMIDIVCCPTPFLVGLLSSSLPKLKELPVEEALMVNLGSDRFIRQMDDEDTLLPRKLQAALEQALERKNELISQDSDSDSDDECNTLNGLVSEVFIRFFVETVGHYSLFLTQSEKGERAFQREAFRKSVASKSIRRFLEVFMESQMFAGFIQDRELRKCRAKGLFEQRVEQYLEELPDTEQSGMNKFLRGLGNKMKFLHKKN
Test: IA-DTB cysteine engagement
Format: binding
Details: 22Rv1 cells, 20 μM probe, 1 h, relative to DMSO
Procedure, shortened: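 In-situ probe treatment of cells; lysate 2 mg/mL, IA-DTB 1 h RT; MeOH/CHCl3 precipitation, DTT/iodoacetamide, trypsin; streptavidin enrichment; TMT labeling, high-pH fractionation. Ratio = TMT reporter intensity / mean DMSO channels, median-normalized.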

SMILES: C=CC(=O)N1C[C@@H](c2ccc(Br)cc2)[C@H]1C(=O)Nc1cccc2cccnc12 [MY-1A, (2S,3R)-1-acryloyl-3-(4-bromophenyl)-N-(quinolin-8-yl)azetidine-2-carboxamide]
- % engagement DENND2B_C804: 29.25%

SMILES: C=CC(=O)N1C[C@H](c2ccc(Br)cc2)[C@@H]1C(=O)Nc1cccc2cccnc12 [MY-1B, (2R,3S)-1-acryloyl-3-(4-bromophenyl)-N-(quinolin-8-yl)azetidine-2-carboxamide]
- % engagement DENND2B_C804: 80.25%

SMILES: C=CC(=O)N1C[C@H](c2ccc(Br)cc2)[C@H]1C(=O)Nc1cccc2cccnc12 [MY-3A, (2S,3S)-1-acryloyl-3-(4-bromophenyl)-N-(quinolin-8-yl)azetidine-2-carboxamide]
- % engagement DENND2B_C804: −5.25%

SMILES: C=CC(=O)N1C[C@H](c2ccc(Br)cc2)[C@H]1C(=O)Nc1cccc2cccnc12 [MY-3B, (2S,3S)-1-acryloyl-3-(4-bromophenyl)-N-(quinolin-8-yl)azetidine-2-carboxamide]
- % engagement DENND2B_C804: −5.75%
